We go through one molecule from patent US20100092559A1 (OsteoGeneX Inc., priority 2008, published 2010).

The test system of test [1] is C57BL/6 mice. The test can be described thus: Bone growth in four month old male C57BL/6 mice, daily i.p. for 30 days (uCT, histomorphometry, pQCT). It counts as in vivo, mouse. On the procedure: Study endpoints included measurement of trabecular lumbar vertebrae 5 (LVB5) by uCT, showing 65% increase in bone volume over baseline at 75 mg/kg (FIG. 2).
Test [2] has as its system Wnt pathway. The test can be described thus: Wnt pathway modulation to promote bone growth (FIG. 1). Particulars: doses of 2.5 ng (low), 60 ng (medium), 125 ng (high).
Test [3] has as its system mouse. The experiment in a line: micro-CT bone formation assay in mice for SOST antagonist candidates. It counts as in vivo. The note with it: test vs control solution, complete dosing schedule. The text has this: Compounds useful in the methods of the present invention can be identified via a variety of methods known to one of skill in the art. Several exemplary methods for identifying such antagonists are described herein, including cell-based and in vitro techniques (Journal of Bone and Mineral Research 2006, 21(11), 1738-1749). A general method of identifying SOST antagonists involves evaluating the effects of antagonist candidates on bone formation under controlled conditions. Preferably bone formation is determined using micro-CT techniques on live animals. Preferred animals include rodents, more preferred are primates. Femur, tibia and vertebrae bones are particularly useful subjects for such study.
Briefly, the test animal is treated with a predetermined dose of a SOST antagonist candidate. […]
Once the dosing schedule has been completed, both test and control animals are examined to determine the quantity of bone formation present. […] Where necessary, levels of bone formation can be calculated by determining the volume of bone formation present in each animal. […]
For example, the mouse test animal is treated with a predetermined dose of a SOST antagonist candidate for a complete dosing schedule. […] Once the dosing schedule has been completed, both test and control animals are examined with sacrifice using micro-CT to determine the quantity of bone formation present.

The structures appear in SMILES notation.

As for `COc1cc2c(cc1O)C[C@H]1c3c(cc(O)c(OC)c3-2)CCN1C` [(S)-boldine], the “increase in BV/TV of femur over baseline controls, pQCT” value in test [1] (60 mg/kg) is 8%. The “increase in bone volume over baseline, trabecular lumbar vertebrae 5 (LVB5) by uCT” value in test [1] (75 mg/kg i.p. daily for 30 days, male C57BL/6 mice, FIG. 2) is given as 65%. The “increase in BV/TV in trabecular long bone over saline controls, histomorphometry” value in test [1] (all animals in both L (0.75 mg/kg) and H (75 mg/kg) groups, i.p. daily 30 days, p=0.05) came out at 78%. Moreover, the “modulating the Wnt pathway to promote bone growth” value in test [2] was “modulating the Wnt pathway to promote bone growth”. For the same molecule, the “bone growth (quantity of bone formation by micro-CT)” value in test [3] is listed as “promoting bone growth”.
